Measured values published in PMC7144022, “Quinolinecarboxamides Inhibit the Replication of the Bovine Viral Diarrhea Virus by Targeting a Hot Spot for the Inhibition of Pestivirus Replication in the RNA-Dependent RNA Polymerase” (Molecules, 2020).

What was measured:
[1] = Cytotoxicity assay, proliferation of exponentially growing MDBK cells (MTS/PMS); format: cell-based, bovine; settings: bovine
Protocol: Assays were carried out, as described previously.

BVDV NADL virus = assay: CPE-based antiviral assay, BVDV NADL in MDBK cells (MTS/PMS); settings: for EC50: Bovine viral diarrhea virus isolates and strains, MDBK, 72 h; for S.I.: selectivity index, CC50 vs EC50; for fold increase: sheet CSFCII#, potency relative to TO502-2403 (EC50 0.2 µM)

Structure (SMILES) | CC50 at 5 days [1] | EC50 (BVDV NADL virus) | S.I. (BVDV NADL virus) | fold increase (BVDV NADL virus)
COc1ccc2nc(NC(=O)c3cc(-c4ccco4)nc4ccc(F)cc34)sc2c1 [CSFC-63, Fc1cc2c(cc1)nc(cc2C(=O)Nc3nc4ccc(cc4s3)OC)c5ccco5] | > 100 µM | 18.8 µM | 5 | 0.0106
COc1ccc2nc(NC(=O)c3cc(-c4ccco4)nc4ccc(OC)cc34)sc2c1 [CSFC-64, O=C(c2cc(nc1ccc(OC)cc12)c3ccco3)Nc4nc5ccc(cc5s4)OC] | > 100 µM | 16 µM | 6 | 0.0125
COc1ccc2nc(NC(=O)c3cc(-c4ccco4)nc4c(C)cc(C)cc34)sc2c1 [CSFC-65, O=C(c2cc(nc1c2cc(cc1C)C)c3ccco3)Nc4nc5ccc(cc5s4)OC] | > 100 µM | 5.8 µM | 17 | 0.0345
Cc1cccc2sc(NC(=O)c3cc(-c4ccc(F)cc4)nc4ccccc34)nc12 [CSFC-66, Fc1ccc(cc1)c3nc2ccccc2c(c3)C(=O)Nc4nc5c(C)cccc5s4] | > 100 µM | 0.2 µM | 500 | 1.00
COc1ccc2nc(NC(=O)c3cc(-c4cccc(F)c4)nc4ccccc34)sc2c1 [CSFC-67, Fc1cccc(c1)c3nc2ccccc2c(c3)C(=O)Nc4nc5ccc(cc5s4)OC] | > 100 µM | 0.9 µM | 111 | 0.22
COc1ccc2nc(NC(=O)c3cc(-c4ccc(F)cc4)nc4ccccc34)sc2c1 [CSFC-68, Fc1ccc(cc1)c3nc2ccccc2c(c3)C(=O)Nc4nc5ccc(cc5s4)OC] | > 100 µM | 0.2 µM | 500 | 1.00
O=C(Nc1ccn(-c2ccccc2)n1)c1cc(-c2cccc(F)c2)nc2ccccc12 [CSFC-69, Fc1cccc(c1)c3nc2ccccc2c(c3)C(=O)Nc4ccn(n4)c5ccccc5] | > 100 µM | 0.1 µM | 1000 | 2.00
O=C(Nc1ccn(-c2ccccc2)n1)c1cc(-c2ccc(F)cc2)nc2ccccc12 [CSFC-70, Fc1ccc(cc1)c3nc2ccccc2c(c3)C(=O)Nc4ccn(n4)c5ccccc5] | > 100 µM | 0.1 µM | 1000 | 2.00
Cc1cccc2sc(NC(=O)c3cc(-c4ccco4)nc4ccc(F)cc34)nc12 [CSFC-71, Fc1cc2c(cc1)nc(cc2C(=O)Nc3nc4c(C)cccc4s3)c5ccco5] | > 100 µM | 0.1 µM | 1000 | 2.00
Cc1ccc2nc(-c3ccco3)cc(C(=O)Nc3nc4c(C)cccc4s3)c2c1 [CSFC-72, Cc1cc2c(cc1)nc(cc2C(=O)Nc3nc4c(C)cccc4s3)c5ccco5] | > 100 µM | 8.7 µM | 11 | 0.023
COc1ccc2nc(NC(=O)c3cc(-c4ccco4)nc4ccc(C)cc34)sc2c1 [CSFC-73, O=C(c2cc(nc1ccc(cc12)C)c3ccco3)Nc4nc5ccc(cc5s4)OC] | > 100 µM | 11.5 µM | 9 | 0.0174
Cc1cccc2sc(NC(=O)c3cc(-c4ccco4)nc4ccc(CO)cc34)nc12 [CSFC-74, OCc1cc2c(cc1)nc(cc2C(=O)Nc1nc2c(C)cccc2s1)c1ccco1] | > 100 µM | 100 µM | 1 | 0.002
Cc1cc(C)c2nc(-c3ccco3)cc(C(=O)Nc3nc4c(C)cccc4s3)c2c1 [CSFC-75, Cc5cc1c(nc(cc1C(=O)Nc2nc3c(C)cccc3s2)c4ccco4)c(C)c5] | > 100 µM | 5.3 µM | 19 | 0.0377
O=C(Nc1ccn(-c2ccccc2)n1)c1cc(-c2ccccc2F)nc2ccccc12 [CSFC-76, Fc1ccccc1c3nc2ccccc2c(c3)C(=O)Nc4ccn(n4)c5ccccc5] | > 100 µM | 0.1 µM | 1000 | 2.00
COc1ccc2nc(NC(=O)c3cc(-c4ccco4)nc4ccc(OC(F)(F)F)cc34)sc2c1 [CSFC-77, FC(F)(F)Oc1cc2c(cc1)nc(cc2C(=O)Nc3nc4ccc(cc4s3)OC)c5ccco5] | > 100 µM | 100 µM | 1 | 0.002
Cc1cccc2sc(NC(=O)c3cc(-c4ccsc4)nc4ccccc34)nc12 [CSFC-78, Cc1cccc2sc(nc12)NC(=O)c4cc(nc3ccccc34)c5ccsc5] | > 100 µM | 0.1 µM | 1000 | 2.00
Cc1cccc2sc(NC(=O)c3cc(-c4ccco4)nc4ccc(C(F)(F)OF)cc34)nc12 [CSFC-79, FC(F)(OF)c1cc2c(cc1)nc(cc2C(=O)Nc1nc2c(C)cccc2s1)c1ccco1] | > 100 µM | 2.5 µM | 40 | 0.08
Cc1cccc2sc(NC(=O)c3cc(-c4ccco4)nc4c(F)cccc34)nc12 [CSFC-80, Fc5cccc1c5nc(cc1C(=O)Nc2nc3c(C)cccc3s2)c4ccco4] | > 100 µM | 0.9 µM | 111 | 0.22

Structure (SMILES) | CC50 at 5 days [1] | EC50 (BVDV NADL virus) | S.I. (BVDV NADL virus) | fold increase (BVDV NADL virus)
COc1ccc2nc(NC(=O)c3cc(-c4ccco4)nc4ccc(Cl)cc34)sc2c1 [CSFC-81, Clc1cc2c(cc1)nc(cc2C(=O)Nc3nc4ccc(cc4s3)OC)c5ccco5] | > 100 µM | 24.5 µM | 4 | 0.00816
COc1ccc2nc(NC(=O)c3cc(-c4ccsc4)nc4ccccc34)sc2c1 [CSFC-82, O=C(c2cc(nc1ccccc12)c3ccsc3)Nc4nc5ccc(cc5s4)OC] | > 100 µM | 0.2 µM | 500 | 1.00
COc1ccc2nc(NC(=O)c3cc(-c4ccco4)nc4c(F)cccc34)sc2c1 [CSFC-83, Fc5cccc1c5nc(cc1C(=O)Nc2nc3ccc(cc3s2)OC)c4ccco4] | > 100 µM | 0.07 µM | 1429 | 2.86
Cc1cccc2sc(NC(=O)c3cc(-c4ccco4)nc4ccc(Cl)cc34)nc12 [CSFC-84, Clc1cc2c(cc1)nc(cc2C(=O)Nc3nc4c(C)cccc4s3)c5ccco5] | > 100 µM | 11.5 µM | 9 | 0.0174
Cc1cccc2sc(NC(=O)c3cc(-c4cc(Cl)sc4Cl)nc4ccccc34)nc12 [CSFC-85, Clc1cc(c(Cl)s1)c3nc2ccccc2c(c3)C(=O)Nc4nc5c(C)cccc5s4] | > 100 µM | 0.3 µM | 333 | 0.67
COc1ccc2nc(NC(=O)c3cc(-c4cc(C)oc4C)nc4ccccc34)sc2c1 [CSFC-86, O=C(c2cc(nc1ccccc12)c3cc(oc3C)C)Nc4nc5ccc(cc5s4)OC] | > 100 µM | 0.3 µM | 333 | 0.67
Cc1cccc2sc(NC(=O)c3cc(-c4cccn4C)nc4ccccc34)nc12 [CSFC-88, Cn1cccc1c3nc2ccccc2c(c3)C(=O)Nc4nc5c(C)cccc5s4] | > 100 µM | 0.2 µM | 500 | 1.00
COc1cccc2sc(NC(=O)c3cc(-c4cccs4)nc4ccccc34)nc12 [CSFC-89, COc1cccc2sc(nc12)NC(=O)c4cc(nc3ccccc34)c5cccs5] | > 100 µM | 0.6 µM | 167 | 0.33
Cc1cccc2sc(NC(=O)c3cc(-c4cc5ccccc5o4)nc4ccccc34)nc12 [CSFC-90, Cc1cccc2sc(nc12)NC(=O)c4cc(nc3ccccc34)c5cc6ccccc6o5] | > 100 µM | 3 µM | 33 | 0.07
COc1ccc(-n2ccc(NC(=O)c3cc(-c4ccc(F)cc4)nc4ccccc34)n2)cc1 [CSFC-91, Fc1ccc(cc1)c3nc2ccccc2c(c3)C(=O)Nc4ccn(n4)c5ccc(OC)cc5] | > 100 µM | 1 µM | 100 | 0.20
O=C(Nc1ccn(-c2ccccc2)n1)c1cc(-c2cc3ccccc3o2)nc2ccccc12 [CSFC-92, O=C(Nc1ccn(n1)c2ccccc2)c3cc(nc4ccccc34)c5cc6ccccc6o5] | > 100 µM | 0.3 µM | 333 | 0.67
O=C(Nc1ccn(-c2ccccc2)n1)c1cc(-c2cccs2)nc2ccc(F)cc12 [CSFC-93, O=C(Nc1ccn(n1)c2ccccc2)c4cc(nc3ccc(F)cc34)c5cccs5] | > 100 µM | 0.06 µM | 1667 | 3.33
O=C(Nc1nc2ccc(C(F)(F)F)cc2s1)c1cc(-c2ccccc2)nc2ccccc12 [CSFC-94, FC(F)(F)c1ccc2nc(sc2c1)NC(=O)c4cc(nc3ccccc34)c5ccccc5] | > 100 µM | 100 µM | 1 | 0.002
Cc1cccc2sc(NC(=O)c3cc(-c4cccs4)nc4ccc(Br)cc34)nc12 [CSFC-95, Brc1cc2c(cc1)nc(cc2C(=O)Nc3nc4c(C)cccc4s3)c5cccs5] | > 100 µM | 3.1 µM | 32 | 0.0645
O=C(Nc1ccn(-c2ccccc2)n1)c1cc(-c2ccccn2)nc2ccccc12 [CSFC-96, O=C(c2cc(nc1ccccc12)c3ccccn3)Nc4ccn(n4)c5ccccc5] | > 100 µM | 0.2 µM | 500 | 1.00
O=C(Nc1ccn(-c2ccccc2)n1)c1cc(-c2cccs2)nc2ccc(I)cc12 [CSFC-97, O=C(Nc1ccn(n1)c2ccccc2)c4cc(nc3ccc(I)cc34)c5cccs5] | > 100 µM | 4.1 µM | 24 | 0.05
Cc1cccc2sc(NC(=O)c3cc(-c4cccs4)nc4c(Cl)cccc34)nc12 [CSFC-98, Clc5cccc1c5nc(cc1C(=O)Nc2nc3c(C)cccc3s2)c4cccs4] | > 100 µM | 0.2 µM | 500 | 1.00
